The text below walks through data of US10323027B2, “2,3-dihydro-4H-1,3-benzoxazin-4-one derivatives as modulators of cholinergic muscarinic M1 receptor” (Takeda Pharmaceutical Company Limited, priority 2015, dated 2019).

The target of the assay is T1, human M1 receptor (hCHRM1) (Homo sapiens, UniProt P11229).
T1 construct: expressed in transfected cells
T1 sequence (P11229 1-460): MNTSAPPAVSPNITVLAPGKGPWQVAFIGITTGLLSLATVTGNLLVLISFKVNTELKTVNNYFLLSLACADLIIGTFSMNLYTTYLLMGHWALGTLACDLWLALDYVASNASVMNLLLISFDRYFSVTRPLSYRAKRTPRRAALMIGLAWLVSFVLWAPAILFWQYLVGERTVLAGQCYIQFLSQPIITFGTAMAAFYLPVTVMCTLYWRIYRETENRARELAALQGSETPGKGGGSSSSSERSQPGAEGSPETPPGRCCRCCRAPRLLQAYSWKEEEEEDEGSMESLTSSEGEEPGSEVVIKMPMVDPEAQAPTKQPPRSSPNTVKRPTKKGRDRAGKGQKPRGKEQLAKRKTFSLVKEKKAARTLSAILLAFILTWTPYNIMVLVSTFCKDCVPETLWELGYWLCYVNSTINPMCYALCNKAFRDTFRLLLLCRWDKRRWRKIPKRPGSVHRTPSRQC
Kind of assay: Measurement of M1 receptor positive allosteric modulator (M1PAM) activity, Ca2+ fluorescence by FLIPRtetra (Experimental Example 1). Type of assay: cell-based. Conditions: for activity (%) at 10 μM: 10 μM test compound, 100% = acetylcholine 1 μM, 0% = DMSO; for EC50: inflection point of concentration-dependent curve, in presence of acetylcholine at EC20 (0.8-1.0 nM), CHO-K1 cells expressing hCHRM1, read-out: IP value. In outline:
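CHO-K1 cells stably expressing hCHRM1, loaded with Fluo-4 AM (probenecid), received compound with acetylcholine at EC20 (final 0.8-1.0 nM); Ca2+ fluorescence read 1 min by FLIPRtetra. Activity scaled 0% (DMSO) to 100% (1 μM acetylcholine); IP from inflection point of concentration curve.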

`Cc1ccc(Cc2cc3c(c4ccccc24)OCN(CC2CCCO2)C3=O)cn1` (centres unmarked) [Example 58, 6-((6-methylpyridin-3-yl)methyl)-3-(tetrahydrofuran-2-ylmethyl)-2,3-dihydro-4H-naphtho[2,1-e][1,3]oxazin-4-one]: the “activity (%) at 10 μM” value is 94% and the EC50 was found to be 16 nM.
For `O=C1c2cc(CN3CC[S+]([O-])CC3)c3ccccc3c2OCN1[C@H]1CCC[C@@H]1O` [Example 60, 3-((1S,2S)-2-hydroxycyclopentyl)-6-((1-oxidothiomorpholin-4-yl)methyl)-2,3-dihydro-4H-naphtho[2,1-e][1,3]oxazin-4-one], in that order: 105% and 22 nM.
For the molecule `Cc1cc2c(cc1Cc1ccc(-c3cn(C)nn3)cc1)C(=O)N(CC1CCCO1)CO2` (centres unmarked) [Example 61, 7-methyl-6-(4-(1-methyl-1H-1,2,3-triazol-4-yl)benzyl)-3-(tetrahydrofuran-2-ylmethyl)-2,3-dihydro-4H-1,3-benzoxazin-4-one], the “activity (%) at 10 μM” value came to 92% and the EC50 stood at 23 nM.
For `Cc1ccc(Cc2cc3c(cc2C)OCN([C@H]2CCC[C@@H]2O)C3=O)cn1` [Example 64, 3-((1S,2S)-2-hydroxycyclopentyl)-7-methyl-6-((6-methylpyridin-3-yl)methyl)-2,3-dihydro-4H-1,3-benzoxazin-4-one], in that order: 99% and 34 nM.
On to `Cc1cc2c(cc1Cc1ccc(C#N)cc1)C(=O)N([C@H]1CCC[C@@H]1O)CO2` [Example 67, 4-((3-((1S,2S)-2-hydroxycyclopentyl)-7-methyl-4-oxo-3,4-dihydro-2H-1,3-benzoxazin-6-yl)methyl)benzonitrile], for which the “activity (%) at 10 μM” value is 98% and the EC50 was found to be 46 nM.
For `Cc1ccc(Cc2cc3c(c4ccccc24)OCN(CC2CCCO2)C3=O)cn1` (centres unmarked) [Example 68, 6-((6-methylpyridin-3-yl)methyl)-3-(tetrahydrofuran-2-ylmethyl)-2,3-dihydro-4H-naphtho[2,1-e][1,3]oxazin-4-one], in that order: 90% and 48 nM.
The like results for `O=C1c2cc(CN3CCC(F)(F)C3)c3ccccc3c2OCN1[C@H]1CCC[C@@H]1O` [Example 69, 6-((3,3-difluoropyrrolidin-1-yl)methyl)-3-((1S,2S)-2-hydroxycyclopentyl)-2,3-dihydro-4H-naphtho[2,1-e][1,3]oxazin-4-one] were, in that order, 93% and 51 nM.
For `N#CC1CCN(Cc2cc3c(c4ccccc24)OCN([C@H]2CCC[C@@H]2O)C3=O)CC1` [Example 70, 1-((3-((1S,2S)-2-hydroxycyclopentyl)-4-oxo-3,4-dihydro-2H-naphtho[2,1-e][1,3]oxazin-6-yl)methyl)piperidine-4-carbonitrile], in that order: 104% and 52 nM.
Take `Cc1cc2c(cc1Cc1ccc(-c3cn(C)nn3)nc1)C(=O)N(CC1CCCO1)CO2` (centres unmarked) [Example 71, 7-methyl-6-((6-(1-methyl-1H-1,2,3-triazol-4-yl)pyridin-3-yl)methyl)-3-(tetrahydrofuran-2-ylmethyl)-2,3-dihydro-4H-1,3-benzoxazin-4-one]: the “activity (%) at 10 μM” value worked out at 105% and the EC50 was found to be 53 nM.
The like results for `O=C1c2cc(CN3CCCC(F)(F)C3)c3ccccc3c2OCN1[C@H]1CCC[C@@H]1O` [Example 72, 6-((3,3-difluoropiperidin-yl)methyl)-3-((1S,2S)-2-hydroxycyclopentyl)-2,3-dihydro-4H-naphtho[2,1-e][1,3]oxazin-4-one] were, in that order, 100% and 57 nM.
For `COc1ccc(Cc2cc3c(cc2C)OCN([C@H]2CCC[C@@H]2O)C3=O)cc1` [Example 73, 3-((1S,2S)-2-hydroxycyclopentyl)-6-(4-methoxybenzyl)-7-methyl-2,3-dihydro-4H-1,3-benzoxazin-4-one], the “activity (%) at 10 μM” value is given as 97% and the EC50 amounted to 59 nM.
For `COc1c(Cc2ccc(-c3cnn(C)c3)nc2)cc2c(c1F)OCN(CC1CCCO1)C2=O` (centres unmarked) [Example 74, 8-fluoro-7-methoxy-6-((6-(1-methyl-1H-pyrazol-4-yl)pyridin-3-yl)methyl)-3-(tetrahydrofuran-2-ylmethyl)-2,3-dihydro-4H-1,3-benzoxazin-4-one], in that order: 104% and 59 nM.
The like results for `N#CC1CCN(Cc2cc3c(c4ccccc24)OCN([C@H]2CCC[C@@H]2O)C3=O)C1` (stereo partly drawn) [Example 75, 1-((3-((1S,2S)-2-hydroxycyclopentyl)-4-oxo-3,4-dihydro-2H-naphtho[2,1-e][1,3]oxazin-6-yl)methyl)pyrrolidine-3-carbonitrile (diastereoisomer)] were, in that order, 102% and 60 nM.
The like results for `O=C1c2cc(Cc3ccc(Cl)nc3)c3ccccc3c2OCN1CC1CCCO1` (centres unmarked) [Example 76, 6-((6-chloropyridin-3-yl)methyl)-3-(tetrahydrofuran-2-ylmethyl)-2,3-dihydro-4H-naphtho[2,1-e][1,3]oxazin-4-one] were, in that order, 93% and 63 nM.
Regarding `O=C1c2cc(CN3CCOCC3)c3ccccc3c2OCN1[C@H]1CCC[C@@H]1O` [Example 77, 3-((1S,2S)-2-hydroxycyclopentyl)-6-(morpholin-4-ylmethyl)-2,3-dihydro-4H-naphtho[2,1-e][1,3]oxazin-4-one], the “activity (%) at 10 μM” value worked out at 104% and the EC50 stood at 63 nM.
The like results for `Cc1c(Cc2ccc(-n3cccn3)cc2)cc2c(c1F)OCN(CC1CCCO1)C2=O` (centres unmarked) [Example 78, 8-fluoro-7-methyl-6-(4-(1H-pyrazol-1-yl)benzyl)-3-(tetrahydrofuran-2-ylmethyl)-2,3-dihydro-4H-1,3-benzoxazin-4-one] were, in that order, 104% and 75 nM.
For `O=C1c2cc(CN3CCC(F)CC3)c3ccccc3c2OCN1[C@H]1CCC[C@@H]1O` [Example 79, 6-((4-fluoropiperidin-1-yl)methyl)-3-((1S,2S)-2-hydroxycyclopentyl)-2,3-dihydro-4H-naphtho[2,1-e][1,3]oxazin-4-one], in that order: 97% and 78 nM.
In the case of `O=C1NCOc2c1cc(Cc1ccc(Cl)nc1)c1ccccc21` [Example 80, 6-((6-chloropyridin-3-yl)methyl)-2,3-dihydro-4H-naphtho[2,1-e][1,3]oxazin-4-one], the “activity (%) at 10 μM” value was determined as 97% and the EC50 was 81 nM.
Take `Cc1ccc(Cc2cc3c(c(F)c2Cl)OCN([C@H]2CCC[C@@H]2O)C3=O)cn1` [Example 81, 7-chloro-8-fluoro-3-((1S,2S)-2-hydroxycyclopentyl)-6-((6-methylpyridin-3-yl)methyl)-2,3-dihydro-4H-1,3-benzoxazin-4-one]: the “activity (%) at 10 μM” value was determined as 110% and the EC50 was 86 nM.
On to `Cc1cc2c(cc1Cc1ccc(-c3cn(C)nc3C)nc1)C(=O)N(CC1CCCO1)CO2` (centres unmarked) [Example 82, 6-((6-(1,3-dimethyl-1H-pyrazol-4-yl)pyridin-3-yl)methyl)-7-methyl-3-(tetrahydrofuran-2-ylmethyl)-2,3-dihydro-4H-1,3-benzoxazin-4-one], for which the “activity (%) at 10 μM” value is on record as 93% and the EC50 turned out to be 90 nM.
The like results for `Cc1ccc(Cc2cc3c(c(Cl)c2C)OCN(CC2CCCO2)C3=O)cn1` (centres unmarked) [Example 84, 8-chloro-7-methyl-6-((6-methylpyridin-3-yl)methyl)-3-(tetrahydrofuran-2-ylmethyl)-2,3-dihydro-4H-1,3-benzoxazin-4-one] were, in that order, 93% and 96 nM.
On to `Cc1c(Cc2ccc(Cl)nc2)cc2c(c1Cl)OCN(CC1CCCO1)C2=O` (centres unmarked) [Example 87, 8-chloro-6-((6-chloropyridin-3-yl)methyl)-7-methyl-3-(tetrahydrofuran-2-ylmethyl)-2,3-dihydro-4H-1,3-benzoxazin-4-one], for which the “activity (%) at 10 μM” value was determined as 93% and the EC50 came out at 160 nM.
For `Cn1cc(-c2ccc(Cc3ccc4c(c3)C(=O)N(c3ccccc3F)CO4)cn2)cn1` [Example 88, 3-(2-fluorophenyl)-6-((6-(1-methyl-1H-pyrazol-4-yl)pyridin-3-yl)methyl)-2,3-dihydro-4H-1,3-benzoxazin-4-one], in that order: 115% and 230 nM.
With `O=C1c2cc(Cc3ccc(Cl)nc3)c3ccccc3c2OCN1[C@H]1COCC[C@@H]1O` [Example 125, 1,5-anhydro-2-(6-((6-chloropyridin-3-yl)methyl)-4-oxo-2H-naphtho[2,1-e][1,3]oxazin-3(4H)-yl)-2,4-dideoxy-L-threo-pentitol], the “activity (%) at 10 μM” value is on record as 89% and the EC50 came to 3.8 nM.
`Cc1ccc(Cc2cc3c(c4ccccc24)OCN([C@H]2COCC[C@@H]2O)C3=O)cn1` [Example 133, 1,5-anhydro-2,4-dideoxy-2-(6-((6-methylpyridin-3-yl)methyl)-4-oxo-2H-naphtho[2,1-e][1,3]oxazin-3(4H)-yl)-L-threo-pentitol]: the “activity (%) at 10 μM” value is given as 91% and the EC50 came out at 3.6 nM.
